# Results reported in patent US20200197409A1, “HEPATITIS B VIRUS SURFACE ANTIGEN INHIBITOR” (FUJIAN COSUNTER PHARMACEUTICAL CO., LTD., priority 2017, published 2020).
# Legend:
# HBsAg = details: read-out: HBsAg EC50; HepG2.2.15 cells, supernatant on the 8th day
# Procedure: The HBV DNA content in HepG2.2.15 cells culture supernatant was determined by real-time quantitative qPCR assay (real time-qPCR), and the HBV surface antigen content was determined by enzyme linked immunosorbent assay (ELISA). The inhibitory effect of the compound on HBV was evaluated by the EC50 value of the compound.
# 2.1 Cell Line: HepG2.2.15 Cells
# 3.1 HepG2.2.15 cells (4×10^4 cells/well) were seeded into a 96-well plate and incubated overnight at 37° C. under 5% CO2.
# 3.2 On the 2nd day, the compound was diluted into 8 concentrations with 3-fold gradient. The compounds with different concentrations were added into the culture wells in duplicate wells. The final concentration of DMSO in the culture medium was 0.5%, 10 μM ETV was used as a 100%/inhibition control, and 0.5% DMSO was used as a 0% inhibition control.
# 3.3 On the 5th day, the culture medium was replaced with a fresh medium containing the compound.
# 3.4 On the 8th day, the culture medium in the culture well was collected, and a part of the sample was taken for ELISA to determine the content of hepatitis B virus S antigen, a part of the sample was taken to extract DNA with a high-throughput DNA purification kit (Qiagen-51162).
# 3.8 Determination of hepatitis B virus S antigen content by ELISA
# 50 μL of sample and standard sample were taken and added into a reaction plate respectively, followed by addition of 50 μL of enzyme conjugate into each well, the mixture was shaken and well-mixed, and placed in a bath at 37° C. for 60 minutes. The plate was then washed with washing solution 5 times, followed by addition of 50 μL of illuminating substrate into each well, the mixture was well-mixed and allowed to react at room temperature for 10 minutes in the dark. Chemiluminescence intensity was determined by a ELISA.
# Calculation of the percentage of inhibition:% Inh.=(1−value of sample/value of DMSO control)×100
# Calculation of EC50: The 50% inhibitory concentration (EC50) value of the compound on HBV was calculated by GraphPad Prism software.
# [1] = Plasma protein binding rate, CD-1 mouse plasma; assay type: in vitro ADME; details: plasma of CD-1 mouse, dialysis 4 hours at 37° C.
# Procedure: (§1) The protein binding rate of Embodiment 6 in the plasma of human, CD-1 mouse and SD rat was determined, 796 μL of blank plasma was taken from human, CD-1 mice and SD rats, and 4 μL of test compound working solution (400 μM) or warfarin working solution (400 μM) was added to achieve a final concentration of the test compound and the warfarin in plasma samples of 2 μM. The samples were mixed thoroughly. The final concentration of organic phase DMSO was 0.5%, 50 μL of the test compound and warfarin plasma sample were transferred into sample receiving plates (three parallels), and a relative volume of corresponding blank plasma or buffer was immediately added, ensuring that the final volume of each sample well was 100 μL, and the volume ratio of plasma to dialysis buffer was 1:1. 400 μL of stop solution was added to these samples, which was used as a T0 sample for the determination of recovery and stability. […] The protein binding rate and the recovery rate were calculated by the formulas: % Protein unbinding rate (%)=100*Drug concentration through the dialysis membrane/drug concentration not through the dialysate: Protein binding rate (%)=100-% protein unbinding rate: % Recovery=100*(Drug concentration through the dialysis membrane+Drug concentration not through the dialysate)/Total drug concentration before undialysis. Protein binding rate and recovery rate were calculated.
# [2] = Plasma protein binding rate, SD rat plasma; assay type: in vitro ADME; details: plasma of SD rat, dialysis 4 hours at 37° C.
# Procedure: as §1
# [3] = Single-dose pharmacokinetic study on mouse; assay type: in vivo, C57BL/6 mice
# [4] = Single-dose pharmacokinetic study on rat; assay type: in vivo, SD rats
structure (smiles),measurement,setting,value
COCCCOc1cc2c(cc1OC)-c1cc(=O)c(C(=O)O)cn1[C@H](C(C)(C)C)CO2 [Embodiment 6],EC50,HBsAg,3.88 nM
same,"fraction unbound at 4 h, 2 μM",[1],0.498
same,"fraction unbound at 4 h, 2 μM",[2],0.406
same,Apparent distribution volume,[3]; IV: 1 mg/kg PO: 2 mg/kg,5.79 L/kg
same,Bioavailability,[3]; IV: 1 mg/kg PO: 2 mg/kg,91.6%
same,Highest concentration,[3]; IV: 1 mg/kg PO: 2 mg/kg,1055 nM
same,half-life,"[3]; male, C57BL/6, plasma, IV: 1 mg/kg PO: 2 mg/kg",2.46 h
same,clearance,"[3]; male, C57BL/6, plasma, IV: 1 mg/kg PO: 2 mg/kg, read-out: Clearance rate",75 mL/min/kg
same,AUC(0-t),"[3]; male, C57BL/6, plasma, IV: 1 mg/kg, read-out: AUC0-last (Intravenous injection)",0.502 µM·h
same,AUC(0-t),"[3]; male, C57BL/6, plasma, PO: 2 mg/kg, read-out: AUC0-last (Oral)",0.876 µM·h
same,Apparent distribution volume,[4]; IV: 1 mg/kg PO: 2 mg/kg,1.72 L/kg
same,Bioavailability,[4]; IV: 1 mg/kg PO: 2 mg/kg,71.1%
same,Highest concentration,[4]; IV: 1 mg/kg PO: 2 mg/kg,659 nM
same,half-life,"[4]; male, SD, plasma, IV: 1 mg/kg PO: 2 mg/kg",1.98 h
same,clearance,"[4]; male, SD, plasma, IV: 1 mg/kg PO: 2 mg/kg, read-out: Clearance rate",28.1 mL/min/kg
same,AUC(0-t),"[4]; male, SD, plasma, IV: 1 mg/kg, read-out: AUC0-last (Intravenous injection)",1.36 µM·h
same,AUC(0-t),"[4]; male, SD, plasma, PO: 2 mg/kg, read-out: AUC0-last (Oral)",1.83 µM·h
